From PMC8264504, “Identification of Koumine as a Translocator Protein 18 kDa Positive Allosteric Modulator for the Treatment of Inflammatory and Neuropathic Pain” (Frontiers in Pharmacology, 2021)

Legend:
[1] = test system: formalin-induced inflammatory pain model; assay: Formalin test; assay type: in vivo, mice; settings: for phase one nociceptive response: given alone, s.c.
Description: The formalin test was assessed as described by Dubuisson and Dennis ([Dubuisson and Dennis, 1977]) with minor modifications. Briefly, mice were allowed to acclimate for at least 30 min in the transparent plastic box before formalin injection. Each animal was injected with 10 μl of 5% formalin into the dorsal surface of the right hindpaw. Mice were then observed at 0–5 min (phase one) and at 11–60 min (phase two) after formalin, and the amount of time spent licking or biting the injected paw was recorded as the nociceptive response. Ro5-4864 or vehicle (5% DMSO) was administered s. c. 30 min prior to the formalin injection, and koumine was administered s. c. 40 min before formalin injection. To determine whether koumine potentiated the anti-inflammatory pain effects of Ro5-4864, koumine or its vehicle was injected 10 min before Ro5-4864 injection. Ro5-4864 was dissolved in DMSO and diluted in sterile physiological saline, and the final concentration of DMSO was 5%. Koumine was dissolved in sterile physiological saline directly. Animals were randomized for treatment and behavioral test were performed in a blinded manner.

rat model of CIA = assay: Collagen-induced arthritis (CIA) model, MWT and hind paw volume; assay type: in vivo
Description: The induction of CIA in Lewis rats followed protocols and used reagents supplied by Chondrex. Bovine type II collagen (2 mg/ml in 0.05 M acetic acid) was emulsified with incomplete Freund’s adjuvant (IFA; Sigma-Aldrich) using an electric homogenizer equipped with a small blade. Equal volumes of collagen and IFA were mixed in an ice water bath, and collagen was added dropwise to the IFA at 1,000–3,000 rpm. […] Lewis rats were anesthetized and received 0.2 ml of collagen emulsion by subcutaneous injection at the base of the tail. Booster injections were given on day 7 of the study with 0.1 ml of emulsion. Immunized rats received Ro5-4864, koumine or vehicle for seven consecutive days beginning from day 29 after the first collagen injection. The mechanical withdrawal threshold (MWT) was determined on day 29 and day 35, the hind paw volume was determined on day 35, and was measured 60 min following the MWT measurement. Koumine or vehicle was injected s. c., and MWT values were determined 60 min after koumine injection. Ro5-4864 or vehicle was injected i. p., and MWT was determined 50 min after Ro5-4864 injection. To determine whether koumine potentiated the effects of Ro5-4864, koumine (1.0 mg/kg, s. c.) or vehicle was injected 10 min before Ro5-4864 (0.0625–1.0 mg/kg, i. p.) injection, and the MWT was determined 50 min after the last injection. Animals were randomized for treatment and behavioral test were performed in a blinded manner. Mechanical allodynia and edema measurement were measured using the procedures described below. Only rats with mechanical withdrawal threshold scores (calculated by mechanical withdrawal threshold of immunized rats/mechanical withdrawal threshold of normal rats) on day 28 after the first collagen injection >0.75 were used in the study.
Mechanical allodynia was measured using a commercially available electronic von Frey apparatus (Model 2,390; IITC Life Science Inc., Woodland Hills, CA) as described by Mitrirattanakul ([Mitrirattanakul et al., 2006]) with minor modifications. Rats were placed in a Plexiglas box on a steel mesh floor, and analyses were performed using an electronic von Frey apparatus. Stimulation was applied to the center of the hind paw in an upward motion of the von Frey filament until foot withdrawal occurred, and the withdrawal threshold was automatically recorded. The maximum strength of the filament used for von Frey testing was 55 g. The procedure was repeated three times at approximately 5 min intervals for each hind paw, and the MWT was calculated as the mean of the three latencies.
Arthritic edema was assessed by measuring the hind paw volume with a plethysmometer (Yi Yan Technology Development Co., Ltd.) according to the manufacturer’s recommendations.

[2] = test system: naïve and CCI sham-operated rats; assay: MWT in naïve and CCI sham-operated rats; assay type: in vivo, rat; settings: for MWT: given alone
Text: The rat CCI model of neuropathic pain was produced according to the method described by Bennett and Xie ([Bennett and Xie, 1988]). Adult male SD rats were anesthetized by isoflurane delivered by using the anesthetic machine. The right common sciatic nerve was isolated at the mid-thigh level and loosely ligated using four chromic gut (4–0) ties separated by intervals of 1 mm. For sham surgeries, the right sciatic nerve was exposed using the same procedure, but the nerve was not ligated. On the 9th day after surgery, Ro5-4864 or vehicle (5% DMSO) was administered i. p. 50 min before the measurement of mechanical allodynia, and koumine was administered s. c. 60 min before the measurement of mechanical allodynia. To determine whether koumine potentiated the analgesic effects of Ro5-4864, koumine (0.28 mg/kg, s. c.) or vehicle was injected 10 min before Ro5-4864 (0.0625–1.0 mg/kg, i. p.) injection on day 9 after CCI surgery, and the MWT was determined 50 min after the last injection. […] Mechanical allodynia was measured using the procedures described below. Only rats with mechanical withdrawal threshold scores (calculated by CCI ipsilateral paw mechanical withdrawal threshold/contralateral paw mechanical withdrawal threshold) on day 8 after CCI surgery >0.75 were used in the study.
Mechanical allodynia was measured using a commercially available electronic von Frey apparatus (Model 2,390; IITC Life Science Inc., Woodland Hills, CA) as described by Mitrirattanakul ([Mitrirattanakul et al., 2006]) with minor modifications. […] Stimulation was applied to the center of the hind paw in an upward motion of the von Frey filament until foot withdrawal occurred, and the withdrawal threshold was automatically recorded. […] The procedure was repeated three times at approximately 5 min intervals for each hind paw, and the MWT was calculated as the mean of the three latencies.
Figure S5 Modulation of the in vivo efficacy of Ro5-4864 by koumine in the naïve and CCI sham rat model. […] Koumine (0.28 mg/kg) was injected s.c. 9 days after CCI sham surgery, the MWT was determined 60 min after koumine injection. […]

[3] = test system: T98G human glioblastoma cells; assay: Cell viability assay (CellTiter Blue); assay type: cell-based; settings: same dosing regimen as proliferation, 48 h
Description: T98G cells were plated and treated as in the proliferation assays. After 48 h of drug exposure, CellTiter Blue Reagent (Promega) was added to the cells and incubated for 4 h in 5% CO2 at 37°C. Absorption was measured at 570 nm using 600 nm as a reference wavelength.

[4] = acute administration alone on day 29
[5] = given alone daily day 29 to day 35, MWT on day 35

Compound | modulation of Ro5-4864-mediated analgesic effect, phase two ([1]; 0.4 mg/kg koumine s.c. 10 min before 0.00016–0.02 mg/kg Ro5-4864 s.c.) | modulation of Ro5-4864-mediated analgesic response, first phase ([1]; 0.4 mg/kg koumine s.c. 10 min before Ro5-4864) | phase one nociceptive response [1] | significant inhibition of second-phase nociceptive response ([1]; koumine alone 0.08 and 0.4 mg/kg s.c.) | second-phase nociceptive response ([1]; koumine alone 2.0 and 10 mg/kg s.c. 40 min before formalin) | mechanical allodynia (MWT) (rat model of CIA; [4]) | modulation of Ro5-4864 antinociceptive effect (MWT) (rat model of CIA; acute coadministration of 1.0 mg/kg koumine s.c. and Ro5-4864 i.p., day 29) | mechanical allodynia (MWT) (rat model of CIA; [5]) | modulation of Ro5-4864-mediated anti-edematogenic effect (hind paw volume) (rat model of CIA; koumine 1.0 mg/kg s.c. coadministered with Ro5-4864 0.25 mg/kg i.p., successive administration, day 35) | modulation of Ro5-4864-mediated analgesic effect (MWT) (rat model of CIA; koumine 1.0 mg/kg s.c. coadministered with Ro5-4864 0.125–1.0 mg/kg i.p., successive administration, day 35) | paw edema (hind paw volume) (rat model of CIA; koumine alone daily day 29 to day 35 s.c., day 35) | MWT [2] | modulation of antinociceptive effect of Ro5-4864 (MWT) ([2]; koumine 0.28 mg/kg s.c. before Ro5-4864 i.p.) | cell viability [3] | phase two nociceptive response ([1]; Ro5-4864 alone 0.00016–0.5 mg/kg s.c. 30 min before formalin) | paw edema (hind paw volume) (rat model of CIA; Ro5-4864 alone at the highest dose tested, daily day 29 to day 35 i.p., day 35)
C=C[C@@]12CN(C)[C@H]3C[C@]14C(=Nc1ccccc14)[C@H]1C[C@@H]2[C@@H]3CO1 [koumine] | significantly augment | did not increase | ineffective | not | significantly inhibited the second-phase nociceptive response | dose-dependent inhibition effect | clearly augmented the antinociceptive effect | clearly reduced mechanical allodynia | notably increased | notably increased | did not produce an anti-edematogenic effect | Neither Ro5-4864 nor koumine altered the MWT | could not significantly augment | not significantly affected |  | 
CN1C(=O)CN=C(c2ccc(Cl)cc2)c2cc(Cl)ccc21 [Ro5-4864, reference compound] |  |  | produced an antinociceptive effect |  |  | reduced mechanical allodynia |  | clearly reduced mechanical allodynia |  |  |  | Neither Ro5-4864 nor koumine altered the MWT |  | not significantly affected | produced a dose-dependent antinociceptive effect | significantly inhibited paw edema
